Source: patent US20200085767A1, “Methods for Treating Hydrocephalus” (Indian University Research and Technology Corporation, priority 2016, published 2020)
Entries after “also recorded” stand apart in the source; their conditions may differ.

Test system: PCP-R choroid plexus cell line
Assay: Ussing chamber electrophysiology of TRPV4 agonist-stimulated transepithelial ion transport (short-circuit current and conductance)
Assay type: cell-based, porcine
From the text: In order to follow transepithelial ion movement, Ussing chamber electrophysiological techniques were used. The choroid plexus model is a high resistance, continuous cell line of porcine choroid plexus epithelial cells grown on permeable supports. […] The cells were mounted on electrophysiological apparatuses for analysis of transepithelial ion flux in response to inhibitory or stimulatory reagents. Filters were excised, mounted in a Ussing chamber, and connected to a DVC-1000 Voltage/Current Clamp with voltage and current electrodes on either side of the membrane. Each half of the chamber contained a tapered fluid compartment with fittings for voltage electrodes (close to the epithelial membrane) and current electrodes (at the opposite end of the chamber). The fluid chamber was water jacketed to maintain a constant temperature (37° C.). The cells were bathed in serum-free media. Media were circulated in the chambers and oxygenated by means of a 5% CO2/O2 gas lift. The spontaneous transepithelial potential difference was measured and clamped to zero, and the resultant short-circuit (SCC) was monitored continuously as a measurement of net transepithelial ion flux. As per convention, a negative deflection in the SCC was either cation secretion (from blood to CSF) or anion absorption (CSF to blood). Transepithelial resistance (TER) was recorded every 200 seconds throughout each experiment by applying a 2 mV pulse and using the resulting deflection in the SCC to calculate the TER by Ohm's law. Conductances were calculated from the change in current during the voltages pulses. Specifically conductance is the change in current divided by the magnitude of the imposed voltage. In all cases, the graphs shown in each panel represent a series of control and experimental cultures that were grown and analyzed in parallel.
After the basal current was stabilized, effectors were added to one or both sides of polarized monolayer as dictated by the physiological situation.
Further, conductance is a measurement of the permeability of the tissue to water and electrolytes. So, as the conductance goes up, one would expect greater ion and fluid permeability across the choroid plexus which is a barrier epithelium.
The same methods were used in this Example as in Example 1.

SMILES | change in conductance (agonist alone) | transepithelial ion transport response measured as short-circuit current (SCC) (agonist alone, added at time 0 minutes) | GSK1016790A-stimulated transepithelial potassium secretion in the direction of the CSF (short-circuit current, SCC) (cells pre-treated from time -10 to 0 minutes, GSK1016790A added at 0 minutes) | TRPV4 agonist-induced increase in conductance (permeability) (pre-treatment before the TRPV4 agonist GSK1016790A)
CC(C)C[C@H](NC(=O)c1cc2ccccc2s1)C(=O)N1CCN(C(=O)[C@H](CO)NS(=O)(=O)c2ccc(Cl)cc2Cl)CC1 [GSK1016790A] | large increase in the conductance | consistent with cation secretion into the CSF |  | 
NCCC(Oc1ccc(C(F)(F)F)cc1)c1ccccc1 (stereo not shown) [norfluoxetine] |  |  | effective at inhibiting the TRPV4-stimulated ion transport; also recorded: completely inhibited | blocked this increased permeability
